Laboratory results as given in patent US20230219979A1, “PYRAZOLO[1,5-a]PYRIDINE COMPOUND, PREPARATION METHOD THEREFOR AND USE THEREOF” (SHENZHEN ZHONGGE BIOLOGICAL TECHNOLOGY CO., LTD., priority 2019, published 2023).
Where two headings read alike, the source gives them in different places.

Key:
[1] = biological target: Wild-type RET kinase (Homo sapiens, UniProt P07949); test: HTRF method for testing the inhibitory activity of compounds against RET; assay type: biochemical
[2] = biological target: VEGFR2 kinase (Homo sapiens, UniProt P35968); test: HTRF method for testing the inhibitory activity of compounds against VEGFR2; assay type: biochemical
[3] = biological target: T1, Ba/F3-KIF5B-RET cell (Homo sapiens, UniProt P07949); test: CellTiter-Glo luminescence assay, inhibitory activity against Ba/F3-KIF5B-RET cell; assay type: cell-based
T1 construct: fused on or other part: P33176 (Kinesin-1 heavy chain)
From the text: (C) In Vitro Screening Experiment - CellTiter-Glo Luminescence Assay for Testing The inhibitory activity of compounds against Ba/F3-KIF5B-RET cell
• 1. The mammalian cell expression vector containing human KIF5B-RET cDNA was introduced into Ba/F3 cells using the Neon® transfection system method, and the surviving clones screened by puromycin were subjected to cell growth inhibitory function experiments and Western blotting to verify cell lines with stable and high expression of RET. • 2. Cells were cultured in RPMI 1640 medium containing 10% fetal bovine serum, 1% penicillin-streptomycin, and 2 µg/mL puromycin, and then placed in a 37° C., 5% carbon dioxide cell incubator. • 3. The test compound (5 mM stock) was diluted 2.5 folds to […] with 100% dimethyl sulfoxide; and the compound was diluted into 10 concentrations at an equal ratio of 1:3 in a 384-well dilution plate. • 4. 0.2 µL of the serially diluted compound was added to a 384-well cell culture plate (Corning, 3570) using an Echo 550 pipetting system, 2 replicate wells for each concentration, and the final concentration of dimethyl sulfoxide was 0.5% (v/v). The gradient concentrations of the test compound were 5000, 1666.7, 555.5, 185.18, 61.72, 20.57, 6.858, 2.286, 0.764, 0.254 nM. • 5. 40 µL of Ba/F3-KIF5B-RET cell suspension containing 800 cells was added to each well, and incubated for 72 h in a 5% CO2 cell incubator. • 6. 20 µL of Cell Titer-Glo reagent was added to each well of the cell culture plate, and the culture system was then shaken and mixed thoroughly for 2 min to lyse the cells, the cells were then incubated at room temperature for 30 min, and the […] signal values were then read with an Envision 2104 microplate reader. • 7. By fitting the data with XLFit 5.0 based on the parameters formula, the IC50 value was calculated as: • [formula]

[4] = HTRF, read-out: Wild-type RET kinase
[5] = 72 h, read-out: Ba/F3-KIF5B-RET cell activity
[6] = read-out: Ba/F3-KIF5B-RET cell activity, 72 h

Wild-type RET kinase, sequence (P07949 29-1114): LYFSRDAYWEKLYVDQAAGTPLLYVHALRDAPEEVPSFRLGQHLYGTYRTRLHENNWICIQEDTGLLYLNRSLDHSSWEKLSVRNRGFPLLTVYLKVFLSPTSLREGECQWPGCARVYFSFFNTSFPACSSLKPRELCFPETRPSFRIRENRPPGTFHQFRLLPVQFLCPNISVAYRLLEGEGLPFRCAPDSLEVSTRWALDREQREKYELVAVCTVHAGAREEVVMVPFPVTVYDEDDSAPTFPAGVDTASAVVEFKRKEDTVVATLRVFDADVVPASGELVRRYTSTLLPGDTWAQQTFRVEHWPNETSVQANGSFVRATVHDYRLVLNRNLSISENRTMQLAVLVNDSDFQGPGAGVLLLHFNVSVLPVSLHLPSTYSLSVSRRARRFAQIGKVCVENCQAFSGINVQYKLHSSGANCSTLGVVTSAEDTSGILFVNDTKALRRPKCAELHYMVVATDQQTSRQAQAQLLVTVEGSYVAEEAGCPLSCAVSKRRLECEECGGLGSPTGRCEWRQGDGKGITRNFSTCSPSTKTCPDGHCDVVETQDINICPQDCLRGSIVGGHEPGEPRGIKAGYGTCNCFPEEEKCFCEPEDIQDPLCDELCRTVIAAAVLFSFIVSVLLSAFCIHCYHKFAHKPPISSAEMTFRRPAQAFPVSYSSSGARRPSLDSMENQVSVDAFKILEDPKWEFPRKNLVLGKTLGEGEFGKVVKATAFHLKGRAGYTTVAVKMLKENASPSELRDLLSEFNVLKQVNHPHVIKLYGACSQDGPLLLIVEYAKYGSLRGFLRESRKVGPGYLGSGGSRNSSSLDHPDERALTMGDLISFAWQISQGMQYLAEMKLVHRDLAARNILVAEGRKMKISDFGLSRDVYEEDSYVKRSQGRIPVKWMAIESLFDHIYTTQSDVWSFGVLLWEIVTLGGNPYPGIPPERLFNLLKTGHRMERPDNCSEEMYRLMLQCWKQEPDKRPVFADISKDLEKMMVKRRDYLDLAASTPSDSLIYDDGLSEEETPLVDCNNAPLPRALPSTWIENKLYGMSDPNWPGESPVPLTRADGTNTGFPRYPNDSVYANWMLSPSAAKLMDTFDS
VEGFR2 kinase, sequence (P35968 20-1356): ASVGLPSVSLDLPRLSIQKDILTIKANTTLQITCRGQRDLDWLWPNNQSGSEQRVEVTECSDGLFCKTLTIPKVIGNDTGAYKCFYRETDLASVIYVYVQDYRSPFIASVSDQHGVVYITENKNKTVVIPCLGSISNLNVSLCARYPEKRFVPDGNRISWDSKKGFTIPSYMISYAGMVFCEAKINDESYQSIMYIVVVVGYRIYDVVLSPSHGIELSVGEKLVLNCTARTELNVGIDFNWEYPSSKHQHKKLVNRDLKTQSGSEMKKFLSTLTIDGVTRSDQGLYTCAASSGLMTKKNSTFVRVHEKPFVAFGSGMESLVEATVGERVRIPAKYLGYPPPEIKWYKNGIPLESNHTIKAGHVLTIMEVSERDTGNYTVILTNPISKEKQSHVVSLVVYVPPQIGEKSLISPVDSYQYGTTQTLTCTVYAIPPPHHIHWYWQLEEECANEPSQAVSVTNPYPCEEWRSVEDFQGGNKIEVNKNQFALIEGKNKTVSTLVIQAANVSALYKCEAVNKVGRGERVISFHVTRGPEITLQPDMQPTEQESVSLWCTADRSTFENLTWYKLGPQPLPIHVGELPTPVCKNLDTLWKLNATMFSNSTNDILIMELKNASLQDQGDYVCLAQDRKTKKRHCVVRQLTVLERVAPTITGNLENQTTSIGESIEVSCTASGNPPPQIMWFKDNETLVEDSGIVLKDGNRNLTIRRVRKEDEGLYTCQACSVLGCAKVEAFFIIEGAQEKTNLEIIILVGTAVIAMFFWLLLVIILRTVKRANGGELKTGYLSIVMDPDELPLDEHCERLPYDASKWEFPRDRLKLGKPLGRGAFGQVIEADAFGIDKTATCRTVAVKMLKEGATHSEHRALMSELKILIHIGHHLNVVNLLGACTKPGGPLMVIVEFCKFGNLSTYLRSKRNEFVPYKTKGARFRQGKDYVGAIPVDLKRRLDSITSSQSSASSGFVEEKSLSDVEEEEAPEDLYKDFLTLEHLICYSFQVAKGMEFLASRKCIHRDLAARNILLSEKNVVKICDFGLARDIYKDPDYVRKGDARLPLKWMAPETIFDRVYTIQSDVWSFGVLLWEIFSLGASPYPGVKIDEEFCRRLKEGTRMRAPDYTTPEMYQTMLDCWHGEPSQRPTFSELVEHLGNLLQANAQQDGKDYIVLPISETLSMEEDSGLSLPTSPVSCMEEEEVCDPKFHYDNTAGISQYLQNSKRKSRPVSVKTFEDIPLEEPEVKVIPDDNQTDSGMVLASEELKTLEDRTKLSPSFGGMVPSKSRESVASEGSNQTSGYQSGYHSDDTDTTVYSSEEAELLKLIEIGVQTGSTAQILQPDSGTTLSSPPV
T1 sequence (P07949 whole entry, stated change not applied, the tested form may be a part): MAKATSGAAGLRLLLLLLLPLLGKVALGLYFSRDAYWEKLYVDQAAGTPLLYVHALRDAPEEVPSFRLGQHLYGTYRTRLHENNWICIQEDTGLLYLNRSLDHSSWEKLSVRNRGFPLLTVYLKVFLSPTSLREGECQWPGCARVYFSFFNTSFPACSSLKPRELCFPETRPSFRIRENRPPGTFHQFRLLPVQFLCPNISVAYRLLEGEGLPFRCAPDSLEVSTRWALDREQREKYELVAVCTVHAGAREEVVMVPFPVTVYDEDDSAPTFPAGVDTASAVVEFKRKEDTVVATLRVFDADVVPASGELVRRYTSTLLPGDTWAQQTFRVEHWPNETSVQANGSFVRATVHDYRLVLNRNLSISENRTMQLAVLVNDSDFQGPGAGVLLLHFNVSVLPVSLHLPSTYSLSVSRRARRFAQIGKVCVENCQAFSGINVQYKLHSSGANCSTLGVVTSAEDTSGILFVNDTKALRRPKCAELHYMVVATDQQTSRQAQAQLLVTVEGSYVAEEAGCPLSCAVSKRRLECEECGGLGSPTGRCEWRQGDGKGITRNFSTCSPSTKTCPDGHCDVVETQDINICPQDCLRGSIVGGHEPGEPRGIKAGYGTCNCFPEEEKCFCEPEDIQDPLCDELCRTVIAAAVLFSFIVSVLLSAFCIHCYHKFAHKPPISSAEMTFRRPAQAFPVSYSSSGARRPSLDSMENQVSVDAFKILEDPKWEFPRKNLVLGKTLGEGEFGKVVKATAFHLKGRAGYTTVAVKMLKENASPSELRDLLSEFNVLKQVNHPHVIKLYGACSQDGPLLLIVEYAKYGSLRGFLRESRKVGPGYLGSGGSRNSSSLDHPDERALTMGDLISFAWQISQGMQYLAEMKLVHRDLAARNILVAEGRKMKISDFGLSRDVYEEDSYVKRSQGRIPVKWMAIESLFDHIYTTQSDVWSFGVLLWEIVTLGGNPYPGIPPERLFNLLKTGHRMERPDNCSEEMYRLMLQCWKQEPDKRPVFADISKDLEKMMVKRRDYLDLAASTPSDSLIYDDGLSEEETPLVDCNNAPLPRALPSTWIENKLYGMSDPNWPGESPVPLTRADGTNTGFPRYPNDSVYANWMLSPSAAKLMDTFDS

Row | Compound | IC50 [1, 4] | IC50 [2] | GI50 [3, 5] | GI50 [3, 6] | IC50 [1]
1 | COc1ccc(CN2CCN(c3ccc(-c4cc(-c5cnn(C)c5)cn5ncc(C(N)=O)c45)cn3)CC2)cn1 [Compound 8, 4-(6-(4-((6-methoxypyridin-3-yl)methyl)piperazin-1-yl)pyridin-3-yl)-6-(1-methyl-1H-pyrazol-4-yl)pyrazolo[1,5-a]pyridine-3-carboxamide] | 250 nM | ≥ 5000 nM | – | – | –
2 | COc1ccc(CN2C3CC2CN(c2cnc(-c4cc(OCCN5CC6CC(C5)N6)cn5ncc(C#N)c45)cn2)C3)cn1 [Compound 22, 6-(2-(3,6-diazabicyclo[3.1.1]heptan-3-yl)ethoxy)-4-(5-(6-((6-methoxypyridine-3-yl)methyl)-3,6-diazabicyclo[3.1.1]heptan-3-yl)pyrazin-2-yl)pyrazolo[1,5-a]pyridine-3-carbonitrile] | 1.24 nM | – | 151 nM | – | –
3 | COc1ccc(CN2C3CC2CN(c2cnc(-c4cc(OCCN5CCCC56CNC6)cn5ncc(C#N)c45)cn2)C3)cn1 [Compound 23, 6-(2-(2,5-diazaspiro[3.4]octan-5-yl)ethoxy)-4-(5-(6-((6-methoxypyridin-3-yl)methyl)-3,6-diazabicyclo[3.1.1]heptan-3-yl)pyrazin-2-yl)pyrazolo[1,5-a]pyridine-3-carbonitrile] | 1.35 nM | – | 1130 nM | – | –
4 | COc1ccc(CN2C3CC2CN(c2cnc(-c4cc(OCCN5CCC6(CCCCC6)CC5)cn5ncc(C#N)c45)cn2)C3)cn1 [Compound 24, 6-(2-(3-azaspiro[5.5]undecane-3-yl)ethoxy)-4-(5-(6-((6-methoxypyridin-3-yl)methyl)-3,6diazabicyclo[3.1.1]heptan-3-yl)pyrazin-2-yl)pyrazolo[1,5-a]pyridine-3-carbonitrile] | 2.19 nM | – | 21.3 nM | – | –
5 | COc1ccc(CN2C3CC2CN(c2cnc(-c4cc(OCCN5CCC6(CCCO6)CC5)cn5ncc(C#N)c45)cn2)C3)cn1 [Compound 25, 6-(2-(1-oxa-8-azaspiro[4.5]dec-8-yl)ethoxy)-4-(5-(6-((6-methoxypyridin-3-yl)methyl)-3,6-diazabicyclo[3.1.1]heptan-3-yl)pyrazin-2-yl)pyrazolo[1,5-a]pyridine-3-carbonitrile] | 2.89 nM | – | 27.7 nM | – | –
6 | COc1ccc(CN2C3CC2CN(c2cnc(-c4cc(OC(=O)N5CCN(C)CC5)cn5ncc(C#N)c45)cn2)C3)cn1 [Compound 26, 3-cyano-4-(5-(6-((6-methoxypyridin-3-yl)methyl)-3,6-diazabicyclo[3.1.1]heptan-3-yl)pyrazin)pyrazolo[1,5-a]pyridin-6-yl 4-methylpiperazine-1-carboxylate] | – | – | – | 64.2 nM | 12.7 nM
7 | COc1ccc(CN2C3CC2CN(c2cnc(-c4cc(OC(=O)N5CCOCC5)cn5ncc(C#N)c45)cn2)C3)cn1 [Compound 27, 3-cyano-4-(5-(6-((6-methoxypyridin-3-yl)methyl)-3,6-diazabicyclo[3.1.1]heptan-3-yl)pyrazin-2-yl]pyrazolo[1,5-a]pyridin-6-ylmorpholine-4-carboxylate] | – | – | – | 51.7 nM | 15.7 nM
8 | COc1ccc(CN2C3CC2CN(c2cnc(-c4cc(NCc5ccccn5)cn5ncc(C#N)c45)cn2)C3)cn1 [Compound 28, 4-(5-(6-((6-methoxypyridin-3-yl)methyl)-3,6-diazabicyclo[3.1.1]heptan-3-yl)pyrazin-2-yl)-6-((pyridin-2-ylmethyl)amino)pyrazolo[1,5-a]pyridine-3-carbonitrile] | 1.3 nM | – | 12.6 nM | – | –
9 | COc1ccc(CN2C3CC2CN(c2cnc(-c4cc(OCCN5CCC6(CC5)COC6)cn5ncc(C#N)c45)cn2)C3)cn1 [Compound 30, 6-(2-(2-oxa-7-azaspiro[3.5]non-7-yl)ethoxy)-4-(5-(6-((6-methoxypyridin-3-yl)methyl)-3,6-diazabicyclo[3.1.1]heptan-3-yl)pyrazin-2-yl)pyrazolo[1,5-a]pyridine-3-carbonitrile] | 3.98 nM | – | 63.4 nM | – | –
10 | COc1ccc(CN2C3CC2CN(c2cnc(-c4cc(OCCN5C6CCC5COC6)cn5ncc(C#N)c45)cn2)C3)cn1 [Compound 31, 6-(2-(3-oxa-8-azabicyclo[3.2.1]oct-8-yl)ethoxy)-4-(5-(6-((6-methoxypyridine-3-yl)methyl)-3,6diazabicyclo[3.1.1]heptan-3-yl)pyrazin-2-yl)pyrazolo[1,5-a]pyridine-3-carbonitrile] | 1.4 nM | – | 5.1 nM | – | –
11 | COc1ccc(CN2C3CC2CN(c2cnc(-c4cc(OCCN5CCC6(CC5)CC(=O)N6)cn5ncc(C#N)c45)cn2)C3)cn1 [Compound 32, 4-(5-(6-((6-methoxypyridin-3-yl)methyl)-3,6-diazabicyclo[3.1.1]heptan-3-yl)pyrazin-2-yl)-6-(2-(2-oxo-1,7-diazaspiro[3.5]non-7-yl)ethoxy)pyrazolo[1,5-a]pyridine-3-carbonitrile] | 4.14 nM | – | 83.3 nM | – | –
12 | COc1ccc(CN2C3CC2CN(c2cnc(-c4cc(OCCN5CC6(CCCOC6)C5)cn5ncc(C#N)c45)cn2)C3)cn1 [Compound 33, 6-(2-(6-oxa-2-azaspiro[3.5]non-2-yl)ethoxy)-4-(5-(6-((6-methoxypyridin-3-yl)methyl)-3,6-diazabicyclo[3.1.1]heptan-3-yl)pyrazin-2-yl)pyrazolo[1,5-a]pyridine-3-carbonitrile] | 5.73 nM | – | 26 nM | – | –
13 | COc1ccc(CN2C3CC2CN(c2cnc(-c4cc(OCCN5CC6(CCCO6)C5)cn5ncc(C#N)c45)cn2)C3)cn1 [Compound 34, 6-(2-(5-oxa-2-azaspiro[3.4]oct-2-yl)ethoxy)-4-(5-(6-((6-methoxypyridin-3-yl)methyl)-3,6-diazabicyclo[3.1.1]heptan-3-yl)pyrazin-2-yl)pyrazolo[1,5-a]pyridine-3-carbonitrile] | 2.04 nM | – | 13.8 nM | – | –
14 | COc1ccc(CN2C3CC2CN(c2cnc(-c4cc(OCCN5CCC6(CCCNC6=O)CC5)cn5ncc(C#N)c45)cn2)C3)cn1 [Compound 35, 4-(5-(6-((6-methoxypyridin-3-yl)methyl)-3,6-diazabicyclo[3.1.1]heptan-3-yl)pyrazin-2-yl)-6-(2-(-1-oxo-2,9-diazaspiro[5.5]undecan-9-yl)ethoxy)pyrazolo[1,5-a]pyridine-3-carbonitrile] | 3.08 nM | – | 81.5 nM | – | –
15 | COc1ccc(CN2C3CC2CN(c2cnc(-c4cc(OCCN5CC6(COC6)C5)cn5ncc(C#N)c45)cn2)C3)cn1 [Compound 36, 6-(2-(2-oxa-6-azaspiro[3.3]hept-6-yl)ethoxy)-4-(5-(6-((6-methoxypyridin-3-yl)methyl)-3,6-diazabicyclo[3.1.1]heptan-3-yl)pyrazin-2-yl)pyrazolo[1,5-a]pyridine-3-carbonitrile] | 2.44 nM | 454 nM | 32.1 nM | – | –
16 | COc1ccc(CN2C3CC2CN(c2cnc(-c4cc(OCCN5CCC6(CCOCC6)CC5)cn5ncc(C#N)c45)cn2)C3)cn1 [Compound 37, 6-(2-(3-oxa-9-azaspiro[5.5]undec-9-yl)ethoxy)-4-(5-(6-((6-methoxypyridin-3-yl)methyl)-3,6-diazabicyclo[3.1.1]heptan-3-yl)pyrazin-2-yl)pyrazolo[1,5-a]pyridine-3-carbonitrile] | 5.7 nM | 801 nM | – | – | –
17 | COc1ccc(CN2C3CC2CN(c2cnc(-c4cc(OCCN5CC6CCC5C6)cn5ncc(C#N)c45)cn2)C3)cn1 (stereo not drawn) [Compound 38, 6-(2-(2-azabicyclo[2.2.1]hept-2-yl)ethoxy)-4-(5-(6-((6-methoxypyridine-3-yl)methyl)-3,6-diazabicyclo[3.1.1]heptan-3-yl)pyrazin-2-yl)pyrazolo[1,5-a]pyridine-3-carbonitrile] | 3.22 nM | 666 nM | 37.3 nM | – | –
18 | COc1ccc(CN2C3CC2CN(c2cnc(-c4cc(OC(=O)NC(C)C)cn5ncc(C#N)c45)cn2)C3)cn1 [Compound 41, 3-cyano-4-(5-(6-((6-methoxypyridin-3-yl)methyl)-3,6-diazabicyclo[3.1.1]heptan-3-yl)pyrazin-2-yl)pyrazolo[1,5-a]pyridin-6-ylisopropylcarbamate] | – | – | – | 266 nM | 6.2 nM
19 | COc1ccc(CN2C3CC2CN(c2ccc(-c4cc(NCCO)cn5ncc(C#N)c45)cn2)C3)cn1 [Compound 51, 6-((2-hydroxyethyl)amino)-4-(6-(6-((6-methoxypyridin-3-yl)methyl)-3,6-diazabicyclo[3.1.1]hept-3-yl)pyridin-3-yl)pyrazolo[1,5-a]pyridine-3-carbonitrile] | 0.22 nM | 19.3 nM | – | – | –
20 | ethyl 4(6-(4-(6-methoxypyridin-3-yl)piperazin-1-yl)pyridin-3-yl)-6-(1-methyl-1H-pyrazol-4-yl)H-pyrazolo[1,5-a]pyridine-3-carboxylate [Compound 1] | 3.1 nM | – | 271 nM | – | –
